Source: patent US7847065B2, “CXADRL1 polypeptides relating to human cancers” (Oncotherapy Science, Inc., priority 2002, dated 2010)
Ends that are not written are not given here. Peptide text beside a SMILES is read from it.

What follows are molecules tested on MKN-1 gastric cancer cells (assay: MTT assay after transfection of S-oligonucleotides, MKN-1). Settings: MKN-1 cells, six days after transfection.
Type: cell-based, human
Protocol: (§1) Cells plated onto 10-cm dishes (2×10^5 cells/dish) were transfected either with plasmid, or synthetic S-oligonucleotides of CXADRL1, GCUD1, or RNF43 using LIPOFECTIN Reagent (GIBCO BRL). Then the cells were cultured with the addition of an appropriate concentration of geneticin for six to twelve days. The cells were then fixed with 100% methanol and stained by Giemsa solution. Sequences of the S-oligonucleotides were as follows:
(§2) Cells plated at a density of 5×10^5 cells/100 mm dish were transfected in triplicate with sense or antisense S-oligonucleotides designated to suppress the expression of CXADRL1, GCUD1, or RNF43. […] Subsequently, the cells were lysed by the addition of 1 ml of 0.01 N HCl/10% SDS and the absorbance of lysates was measured with ELISA plate reader at a test wavelength of 570 nm (reference, 630 nm). The cell viability was represented by the absorbance compared to that of control cells.
With “5′-CTACTCACCGTGCAGA-3′ (phosphorothioate, further chemistry not given here) [CXADRL1-AS4, antisense S-oligonucleotide]” the “Viable cells (MTT assay) compared with control S-oligonucleotides” value was “markedly fewer”.
With “5′-TGCAACACCTACAGAA-3′ (phosphorothioate, further chemistry not given here) [CXADRL1-AS5, antisense S-oligonucleotide]” the “Viable cells (MTT assay) compared with control S-oligonucleotides” value was “markedly fewer”.

Each molecule was assayed on T2 cells (HLA-A*0201) (assay: not given). Settings: not given.
With `CC(C)C[C@H](NC(=O)[C@@H](N)CS)C(=O)N[C@@H](Cc1c[nH]cn1)C(=O)N[C@@H](CCC(=O)O)C(=O)N[C@@H](Cc1ccccc1)C(=O)N[C@@H](Cc1c[nH]cn1)C(=O)N[C@@H](CCCNC(=N)N)C(=O)N[C@@H](CC(N)=O)C(=O)N[C@@H](CS)C(=O)N[C@H](C(=O)O)C(C)C` [RNF43-290, CLHEFHRNCV] (H-CLHEFHRNCV-OH) the “Cytotoxicity(%) ×2 Pep(+)” value was 2.7%, the “Cytotoxicity(%) ×2 Pep(−)” value was 3.7% and the “Cytotoxicity(%) ×20 Pep(+)” value was 9.6%. For the same molecule, the “Cytotoxicity(%) ×20 Pep(−)” value was 9.7%.
For ALWPWLLMAT [RNF43-11, ALWPWLLMAT], the “Cytotoxic activity of peptide-induced CTL line/clone on peptide-pulsed target” value was “higher cytotoxic activity”.
With GLTWPVVLI [RNF43-156, GLTWPVVLI] the “Cytotoxicity(%) ×2 Pep(+)” value was −0.5%, the “Cytotoxicity(%) ×2 Pep(−)” value was −0.3% and the “Cytotoxicity(%) ×20 Pep(+)” value was −0.4%. The “Cytotoxicity(%) ×20 Pep(−)” value was 0.7%.
In the case of KLMEFVYKN [RNF43-171, KLMEFVYKN], the “Cytotoxicity(%) ×2 Pep(+)” value was 1.1%, the “Cytotoxicity(%) ×2 Pep(−)” value was −0.5% and the “Cytotoxicity(%) ×20 Pep(+)” value was 2.6%. For the same molecule, the “Cytotoxicity(%) ×20 Pep(−)” value was 0.0%.
For KLMQSHPLYL [RNF43-81, KLMQSHPLYL], the “Cytotoxicity(%) ×2 Pep(+)” value was 6.3%, the “Cytotoxicity(%) ×2 Pep(−)” value was 8.3% and the “Cytotoxicity(%) ×20 Pep(+)” value was 18.0%. For the same molecule, the “Cytotoxicity(%) ×20 Pep(−)” value was 27.6%.
With KLNLTLEGV [RNF43-60, KLNLTLEGV] the “Cytotoxicity(%) ×2 Pep(+)” value was −1.6%, the “Cytotoxicity(%) ×2 Pep(−)” value was 0.0% and the “Cytotoxicity(%) ×20 Pep(+)” value was −2.1%. For the same molecule, the “Cytotoxicity(%) ×20 Pep(−)” value was 0.2%.
For LLGPSRSAV [RNF43-358, LLGPSRSAV], the “Cytotoxicity(%) ×2 Pep(+)” value was 0.0%, the “Cytotoxicity(%) ×2 Pep(−)” value was −0.8% and the “Cytotoxicity(%) ×20 Pep(+)” value was −0.4%. The “Cytotoxicity(%) ×20 Pep(−)” value was −0.7%.
LMQSHPLYL [RNF43-82, LMQSHPLYL] was tested, and the “Cytotoxicity(%) ×2 Pep(+)” value was 0.0%, the “Cytotoxicity(%) ×2 Pep(−)” value was −0.4% and the “Cytotoxicity(%) ×20 Pep(+)” value was 1.7%. The “Cytotoxicity(%) ×20 Pep(−)” value was 1.2%.
With WLHQHRTCPL [RNF43-302, WLHQHRTCPL] the “Cytotoxicity(%) ×2 Pep(+)” value was 1.5%, the “Cytotoxicity(%) ×2 Pep(−)” value was 2.2% and the “Cytotoxicity(%) ×20 Pep(+)” value was 7.4%. The “Cytotoxicity(%) ×20 Pep(−)” value was 6.1%.
In the case of WLLMATLQA [RNF43-15, WLLMATLQA], the “Cytotoxicity(%) ×2 Pep(+)” value was −0.4%, the “Cytotoxicity(%) ×2 Pep(−)” value was −0.9% and the “Cytotoxicity(%) ×20 Pep(+)” value was −0.2%. For the same molecule, the “Cytotoxicity(%) ×20 Pep(−)” value was 0.0%.
With YLLGPSRSAV [RNF43-357, YLLGPSRSAV] the “Cytotoxicity(%) ×2 Pep(+)” value was 3.7%, the “Cytotoxicity(%) ×2 Pep(−)” value was 3.0% and the “Cytotoxicity(%) ×20 Pep(+)” value was 18.2%. The “Cytotoxicity(%) ×20 Pep(−)” value was 15.4%.

The molecules below were run on TISI cells (HLA-A24/24) (assay: not given). Settings: not given.
In the case of GFGRTGLVL [RNF43-24, GFGRTGLVL], the “Cytotoxicity of CTL lines (9mer) ×2 Pep(+)” value was 1%, the “Cytotoxicity of CTL lines (9mer) ×2 Pep(−)” value was 2% and the “Cytotoxicity of CTL lines (9mer) ×20 Pep(+)” value was 8%. The “Cytotoxicity of CTL lines (9mer) ×20 Pep(−)” value was 9%.
With HYTPSVAYPW [RNF43-683, HYTPSVAYPW] the “Cytotoxicity of CTL lines (10mer) ×2 Pep(+)” value was 0%, the “Cytotoxicity of CTL lines (10mer) ×2 Pep(−)” value was −1% and the “Cytotoxicity of CTL lines (10mer) ×20 Pep(+)” value was 0%. For the same molecule, the “Cytotoxicity of CTL lines (10mer) ×20 Pep(−)” value was 0%.
KLMQSHPLYL [RNF43-81, KLMQSHPLYL] was tested, and the “Cytotoxic activity of peptide-induced CTL line/clone on peptide-pulsed target” value was “modest cytotoxic activity”, the “Cytotoxicity of CTL lines (10mer) ×2 Pep(+)” value was 2% and the “Cytotoxicity of CTL lines (10mer) ×2 Pep(−)” value was −3%. The “Cytotoxicity of CTL lines (10mer) ×20 Pep(+)” value was 10% and the “Cytotoxicity of CTL lines (10mer) ×20 Pep(−)” value was 5%.
KMDPTGKLNL [RNF43-54, KMDPTGKLNL] was tested, and the “Cytotoxic activity of peptide-induced CTL line/clone on peptide-pulsed target” value was “modest cytotoxic activity”, the “Cytotoxicity of CTL lines (10mer) ×2 Pep(+)” value was 0% and the “Cytotoxicity of CTL lines (10mer) ×2 Pep(−)” value was −1%. For the same molecule, the “Cytotoxicity of CTL lines (10mer) ×20 Pep(+)” value was 5% and the “Cytotoxicity of CTL lines (10mer) ×20 Pep(−)” value was 2%.
With LFNLQKSSL [RNF43-639, LFNLQKSSL] the “Cytotoxic activity of peptide-induced CTL line/clone on peptide-pulsed target” value was “higher cytotoxic activities”, the “Cytotoxicity of CTL lines (9mer) ×2 Pep(+)” value was 7% and the “Cytotoxicity of CTL lines (9mer) ×2 Pep(−)” value was 5%. The “Cytotoxicity of CTL lines (9mer) ×20 Pep(+)” value was 42% and the “Cytotoxicity of CTL lines (9mer) ×20 Pep(−)” value was 33%.
For RAPGEQQRL [RNF43-397, RAPGEQQRL], the “Cytotoxicity of CTL lines (9mer) ×2 Pep(+)” value was 15%, the “Cytotoxicity of CTL lines (9mer) ×2 Pep(−)” value was 15% and the “Cytotoxicity of CTL lines (9mer) ×20 Pep(+)” value was 41%. The “Cytotoxicity of CTL lines (9mer) ×20 Pep(−)” value was 32%.
With RAPRPCLSL [RNF43-114, RAPRPCLSL] the “Cytotoxicity of CTL lines (9mer) ×2 Pep(+)” value was 6%, the “Cytotoxicity of CTL lines (9mer) ×2 Pep(−)” value was 9% and the “Cytotoxicity of CTL lines (9mer) ×20 Pep(+)” value was 23%. The “Cytotoxicity of CTL lines (9mer) ×20 Pep(−)” value was 26%.
RPPRPGPFL [RNF43-368, RPPRPGPFL] was tested, and the “Cytotoxicity of CTL lines (9mer) ×2 Pep(+)” value was 0%, the “Cytotoxicity of CTL lines (9mer) ×2 Pep(−)” value was 0% and the “Cytotoxicity of CTL lines (9mer) ×20 Pep(+)” value was 1%. The “Cytotoxicity of CTL lines (9mer) ×20 Pep(−)” value was 0%.
In the case of RYQASCRQA [RNF43-247, RYQASCRQA], the “Cytotoxicity of CTL lines (9mer) ×2 Pep(+)” value was 28%, the “Cytotoxicity of CTL lines (9mer) ×2 Pep(−)” value was 16% and the “Cytotoxicity of CTL lines (9mer) ×20 Pep(+)” value was 71%. The “Cytotoxicity of CTL lines (9mer) ×20 Pep(−)” value was 82%.
With SYCTERSGYL [RNF43-449, SYCTERSGYL] the “Cytotoxicity of CTL lines (10mer) ×2 Pep(+)” value was 0%, the “Cytotoxicity of CTL lines (10mer) ×2 Pep(−)” value was 0% and the “Cytotoxicity of CTL lines (10mer) ×20 Pep(+)” value was 1%. The “Cytotoxicity of CTL lines (10mer) ×20 Pep(−)” value was 1%.
With SYQEPGRRL [RNF43-331, SYQEPGRRL] the “Cytotoxicity of CTL lines (9mer) ×2 Pep(+)” value was 0%, the “Cytotoxicity of CTL lines (9mer) ×2 Pep(−)” value was 0% and the “Cytotoxicity of CTL lines (9mer) ×20 Pep(+)” value was 2%. The “Cytotoxicity of CTL lines (9mer) ×20 Pep(−)” value was 1%.
For TFCSSLSSDF [RNF43-496, TFCSSLSSDF], the “Cytotoxicity of CTL lines (10mer) ×2 Pep(+)” value was 0%, the “Cytotoxicity of CTL lines (10mer) ×2 Pep(−)” value was 0% and the “Cytotoxicity of CTL lines (10mer) ×20 Pep(+)” value was 8%. The “Cytotoxicity of CTL lines (10mer) ×20 Pep(−)” value was 9%.

The molecules below were run on MKN-28 cells (assay: MTT assay after transfection of S-oligonucleotides, MKN-28). Settings: six days after transfection.
Type: cell-based, human
Protocol: as §1, §2
For “5′-CAGCCATCCTGAAAAG-3′ (phosphorothioate, further chemistry not given here) [GCUD1-AS5, antisense S-oligonucleotide]”, the “Viable cells (MTT assay) compared with control S-oligonucleotides” value was “markedly fewer”.
In the case of “5′-CGGCTTACCTCAACCT-3′ (phosphorothioate, further chemistry not given here) [GCUD1-AS8, antisense S-oligonucleotide]”, the “Viable cells (MTT assay) compared with control S-oligonucleotides” value was “markedly fewer”.

These molecules were tested on T2 cells (HLA-A*0201) (assay: 51Cr-release cytotoxicity assay of peptide-induced CTLs on T2 cells). Settings: T2 not pulsed with any peptide.
Protocol: (§3) Target cells were labeled with 100 μCi of Na2^51CrO4 (Perkin Elmer Life Sciences) for 1 h at 37° C. in a CO2 incubator. When peptide-pulsed targets were used, target cells were incubated with the addition of 20 μg/ml of the peptide for 16 h at 37° C. before the labeling with Na2^51CrO4. Target cells were rinsed and mixed with effectors at a final volume of 0.2 ml in round-bottom microtiter plates. The plates were centrifuged (4 minutes at 800×g) to increase cell-to-cell contact and placed in a CO2 incubator at 37° C. After 4 h of incubation, 0.1 ml of the supernatant was collected from each well and the radioactivity was determined with a gamma counter. In case of evaluating cytotoxicity against target cells that endogenously express RNF43, CXADRL1, or GCUD1, the cytolytic activity was tested in the presence of a 30-fold excess of unlabeled K562 cells to reduce any non-specific lysis due to NK-like effectors. […] The MHC restriction was examined by blocking assay, measuring the inhibition of the cytotoxicity with anti-HLA-class I (W6/32) antibody and anti-HLA-class II antibody, or anti-CD4 antibody and anti-CD8 antibody (DAKO).
(§4) The percentage of specific cytotoxicity was determined by calculating the percentage of specific ^51Cr-release by the following formula: {(cpm of the test sample release−cpm of the spontaneous release)/(cpm of the maximum release−cpm of the spontaneous release)}×100. Spontaneous release was determined by incubating the target cells alone in the absence of effectors, and the maximum release was obtained by incubating the targets with 1N HCl. All determinants were done in duplicate, and the standard errors of the means were consistently below 10% of the value of the mean.
With FLTTASGVSV [GCUD1-272, FLTTASGVSV] the “Cytotoxic activity of peptide-induced CTL line/clone on non-pulsed target” value was “without showing any cytotoxic activity”.

Same assay, conditions: T2 pulsed with the peptide
In the case of FLTTASGVSV [GCUD1-272, FLTTASGVSV], the “Cytotoxic activity of peptide-induced CTL line/clone on peptide-pulsed target” value was “very potent cytotoxic activity”.

These molecules were tested on HT29 (assay: not given). Settings: not given.
In the case of ALWPWLLMA [RNF43-11, ALWPWLLMA], the “Cytotoxic activity of CTL clone on HT29” value was “no significant cytotoxic activity”.
In the case of ALWPWLLMAT [RNF43-11, ALWPWLLMAT], the “Cytotoxic activity of CTL clone on HT29” value was “no significant cytotoxic activity”.

What follows are molecules tested on SNU475 (assay: Cytotoxicity of CTLs against tumor cell line SNU475). Settings: SNU475 expresses CXADRL1, GCUD1 and HLA-A*0201.
Type: cell-based, human
Protocol: as §3, §4
In the case of ALSSGLYQV [CXADRL1-9V, ALSSGLYQV], the “Cytotoxic activity of peptide-induced CTLs against SNU475” value was “killed”.
For KMDAEHPEV [GCUD1-9V, KMDAEHPEV], the “Cytotoxic activity of peptide-induced CTLs against SNU475” value was “killed”.

These molecules were tested on DLD-1 (assay: not given). Settings: not given.
ALWPWLLMA [RNF43-11, ALWPWLLMA] was tested, and the “Cytotoxic activity of CTL clone on DLD-1” value was “high cytotoxic activity”.
In the case of ALWPWLLMAT [RNF43-11, ALWPWLLMAT], the “Cytotoxic activity of CTL clone on DLD-1” value was “high cytotoxic activity”.
